These are literature values, as cited in patent EP2387991A1, “Vitamin E succinate stabilized pharmaceutical compositions, methods for the preparation and the use thereof” (Adventrx Pharmaceuticals, Inc., priority 2006, dated 2007).

With `CC(=O)O[C@@]12CO[C@@H]1C[C@H](O)[C@@]1(C)C(=O)[C@H](O)C3=C(C)[C@@H](OC(=O)[C@H](O)[C@@H](NC(=O)OC(C)(C)C)c4ccccc4)C[C@@](O)([C@@H](OC(=O)c4ccccc4)[C@H]21)C3(C)C` [Docetaxel, (2R,3S)-N-carboxy-3-phenylisoserine, N-tert-butyl ester, 13-ester with 5β-20-epoxy-1,2α-,4,7β,10β,13α-hexahydroxytax-11-en-9-one 4-acetate 2-benzoate, trihydrate], the solubility in water entry was “practically insoluble”.
